{
  "source": "patent US20250090567A1",
  "about": "“5-FU AND RNAOG COMBINED IMMUNOCHEMOTHERAPY FOR PANCREATIC CANCER TREATMENT” (ARIZONA BOARD OF REGENTS ON BEHALF OF ARIZONA STATE …, priority 2022, published 2025)",
  "test_system": "MiaPaca-2-iRFP tumors",
  "assay": "In vivo efficacy, subcutaneous MiaPaca-2-iRFP xenograft, intratumor treatment",
  "conditions": "nude mice, twice a week, total 7 times",
  "procedure": "FIG. 4A. schematic illustration of tumor inoculation and treatment schedule. Nude mice received subcutaneous (SC) injection of […] MiaPaca2-iRFP on day 0. Starting on week 4, the mice received intratumor injections of PBS, 5FU, RNAOG, RNAOG+5FU, or 5FU-RNAOG twice a week for total 7 times.\nFIG. 4B. Tumor progression monitored by LI-COR Imaging of near infrared fluorescence intensity from the MiaPaca2-iRFP cell line that expresses iRFP.\nFIG. 4C. Tumor dimensions were also measured for each treatment.\nFIG. 4D. The survival curve of each treatment group. **and***indicate p<0.01 and p<0.001, respectively.\nThe in vitro tumor cell suppression effect of 5FU-RNAOG justified further investigation as to whether the combination of the RNAOG with the anticancer drug 5-fluorouracil (5FU) exerts anti-tumor activity in vivo. The human pancreatic cancer cell line, MiaPaca-2, was used as the model because it forms solid tumors in nude mice upon subcutaneous injection (SC). Specifically, MiaPaca-2 cells were engineered to express near infrared fluorescent protein (iRFP) which allows for real-time monitoring of tumor growth of live animals, especially when the tumor load is low. […] Tumor progression was monitored via the fluorescent intensity of iRFP (FIG. 4B), as well as the directly measured tumor size (FIG. 4C). […]",
  "data": [
    {"smiles": "O=c1[nH]cc(F)c(=O)[nH]1", "note": "[5FU, 5-fluorouracil]", "values": [
      {"measurement": "tumor progression (iRFP fluorescence intensity and tumor size)", "result": "developed large tumors"}
    ]}
  ]
}
